Here are results for 16 molecules from US10463651B2, “3-(1H-pyrrolo[3,2-C]pyridin-2-YL)-1H-indazoles and therapeutic uses thereof” (Samumed, LLC, priority 2015, dated 2019).

SMILES strings stand for the structures.

Type in all cases: cell-based
Assay [1] has as its system primary human mesenchymal stem cells (hMSCs). Description: Induction of chondrogenesis in hMSCs (Rhodamine B / Nile Red nodule imaging). The settings on record: for Emax: maximum activity relative to TGF-β3 (10 ng/mL) positive control, read-out: Max. Activity as % TGF-β3 activity; for EC50: concentration required to induce 50% levels of chondrogenesis vs TGF-β3 positive control, read-out: Conc (nM) of 50% TGF-β3 activity. The source says: Representative compounds were screened using primary human mesenchymal stem cells (hMSCs) to determine their ability to induce chondrogenesis (process by which cartilage is developed).
Primary human mesenchymal stem cells (hMSCs) were purchased from Lonza (Walkersville, Md.) and expanded in Mesenchymal Stem Cell Growth Media (Lonza). Cells between passage 3 and 6 were used for the experiments.
Area of nodules in each well was normalized to the average of 3 DMSO treated wells on the same plate using Excel (Microsoft Inc.). The normalized averages (fold change over DMSO) of 2 or 3 replicate wells for each compound concentration were calculated. Due to solubility limitations of some of the compounds, curve fitting was incomplete leading to inaccurate EC50 determinations.
Using TGF-β3 as a positive control, the concentration of representative compounds required to induce 50% levels of chondrogenesis is reported. In addition, the maximum activity of each compound and the respective dose that each compound reached maximum chondrogenesis activity is reported.

Assay [2] has as its system IL-6 (THP-1 cells). Description: IL-6 inhibition in LPS-stimulated THP-1 cells (HTRF). Conditions: Homo sapiens; for inhibition at 10 µM: THP-1, read-out: percent inhibition at 10 M; for EC50: IL6 by HTRF, THP-1 cells, 500 ng/mL LPS, 22 hours. The essentials: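 THP-1 cells, pre-cultured 24 h in 1% FBS medium, treated with compound 2 h at 37 °C, then stimulated with 500 ng/mL LPS for 22 h. Secreted IL-6 measured by HTRF as the 665/620 nm ratio. Values normalized to DMSO; EC50 from four-parameter fit, duplicates.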
In general terms: TR-FRET usually uses a lanthanide donor and a delayed reading to cut background.

Assay [3] deals with Wnt activity (Sp5-Luc reporter, SW480 colon carcinoma cells). Description: Screening assay for Wnt activity (Sp5-Luc reporter gene assay in SW480 cells). Conditions: Homo sapiens; for EC50: Sp5-Luc reporter, SW480 cells, incubated overnight; for inhibition at 10 µM: SW480, read-out: percent inhibition at 10 μM. A digest of the protocol: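 SW480 colon carcinoma cells stably carrying Sp5 promoter (eight TCF/LEF sites)-driven firefly luciferase, plated at 4,000 cells/well in 1% FBS medium and incubated overnight at 37° C. Luminescence normalised to DMSO-only cells; EC50 from four-parameter variable-slope nonlinear regression.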
Background: Reporter assays use an easily measured gene product as a stand-in for the process of interest.

Assay [4] deals with SW480 colon cancer cells. As to the kind of experiment: Cell viability assay (CellTiter-Blue). Conditions: Homo sapiens; for EC50: 96 h, SW480 cell viability, four days, CellTiter-Blue; for inhibition at 10 µM: SW480, 96 h, read-out: percent inhibition at 10 μM. The essentials:
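Fluorescence from resazurin reduced to resorufin by metabolically active cells was the read-out, taken after ~3 h with CellTiter-Blue.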
On the technique in general: Alamar Blue is a resazurin reagent that responds to reducing activity.

Assay [5] concerns primary human fibroblasts derived from IPF patients (LL29 cells) treated with TGF-β1. As to the kind of experiment: Inhibition of the fibrotic process (αSMA staining) in TGF-β1-treated fibroblasts. Conditions: Fibroblast, 96 h; for EC50: % αSMA-positive LL29 cells, TGF-β1 20 ng/mL, 4 days; for inhibition at 10 µM: read-out: percent inhibition at 10 μM. The essentials:
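LL29 fibroblasts from IPF patients, 1,500 cells/well in F12 with 1% FBS, stimulated with TGF-β1; TGF-β1 plus DMSO wells as controls. Incubation 4 days, then SYTOX green 1 μM final for 30 min at room temperature. Fibrotic response read as αSMA staining.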

Consider `Cc1ncc(-c2ccc3[nH]nc(-c4cc5c(-c6ccncc6)nccc5[nH]4)c3c2)n1C` [Compound 573, 5-(1,2-Dimethyl-1H-imidazol-5-yl)-3-(4-(pyridin-4-yl)-1H-pyrrolo[3,2-c]pyridin-2-yl)-1H-indazole], for which, in assay [1], the Emax stood at 36%. Besides, in assay [2], the inhibition – broadly, the percentage by which the read-out fell short of the control – at 10 µM stood at 38.8%. Besides, the EC50 in assay [2] was over 10 µM; in assay [3] it was 1.24 µM; in assay [4], 4.02 µM; in assay [5], 9.98 µM.
In the case of `CCNCc1cncc(-c2ccc3[nH]nc(-c4cc5c(-c6ccccc6F)nccc5[nH]4)c3c2)c1` [Compound 62, N-((5-(3-(4-(2-Fluorophenyl)-1H-pyrrolo[3,2-c]pyridin-2-yl)-1H-indazol-5-yl)pyridin-3-yl)methyl)ethanamine], the EC50 turned out to be 900 nM in assay [1]; 2.85 µM in assay [2]; 3.37 µM in assay [3]; 1.28 µM in assay [4]; 2.49 µM in assay [5]. The Emax in assay [1] is 59%.
Take `FC1(F)CCN(Cc2cncc(-c3ccc4[nH]nc(-c5cc6c(N7CCCCC7)nccc6[nH]5)c4c3)c2)C1` [Compound 194, 5-(5-((3,3-difluoropyrrolidin-1-yl)methyl)pyridin-3-yl)-3-(4-(piperidin-1-yl)-1H-pyrrolo[3,2-c]pyridin-2-yl)-1H-indazole]: the Emax in assay [1] amounted to 40%. Moreover, the EC50 in assay [2] worked out at 0.257 µM; in assay [3] it was 2 µM; in assay [4], 1.42 µM; in assay [5] it was 1 µM.
`CN(C)Cc1cncc(-c2ccc3[nH]nc(-c4cc5c(-c6cccc(F)c6)nccc5[nH]4)c3c2)c1` [Compound 13, 1-(5-(3-(4-(3-Fluorophenyl)-1H-pyrrolo[3,2-c]pyridin-2-yl)-1H-indazol-5-yl)pyridin-3-yl)-N,N-dimethylmethanamine]: in assay [1], the Emax was found to be 42%. The EC50 in assay [2] worked out at 0.383 µM; in assay [3], 2.94 µM; in assay [4], 0.776 µM; in assay [5], 2.76 µM.
Regarding `c1cncc(-c2ccc3[nH]nc(-c4cc5cnccc5[nH]4)c3c2)c1` [Compound 256, 5-(Pyridin-3-yl)-3-(1H-pyrrolo[3,2-c]pyridin-2-yl)-1H-indazole], the EC50 amounted to 10 nM in assay [1]; 0.053 µM in assay [2]; 0.04 µM in assay [3]; 0.068 µM in assay [4]; 0.106 µM in assay [5]. The Emax in assay [1] was 341%.
Consider `O=C(Nc1cncc(-c2ccc3[nH]nc(-c4cc5c(-c6cccnc6)nccc5[nH]4)c3c2)c1)C1CCC1` [Compound 105, N-(5-(3-(4-(Pyridin-3-yl)-1H-pyrrolo[3,2-c]pyridin-2-yl)-1H-indazol-5-yl)pyridin-3-yl)cyclobutanecarboxamide], for which the EC50 in assay [1] came to 10 nM; in assay [2], 0.04 µM; in assay [3], 0.111 µM; in assay [4], 0.555 µM; in assay [5], 2.43 µM. In assay [1], the Emax was determined as 172%.
Turning to `CN1CCN(c2nccc3[nH]c(-c4n[nH]c5ccc(-c6cncc(CN7CCCCC7)c6)cc45)cc23)CC1` [Compound 239, 3-(4-(4-Methylpiperazin-1-yl)-1H-pyrrolo[3,2-c]pyridin-2-yl)-5-(5-(piperidin-1-ylmethyl)pyridin-3-yl)-1H-indazole], the EC50 in assay [1] was 900 nM; in assay [2], 8.42 µM; in assay [3], over 10 µM; in assay [4] it was 3.71 µM; in assay [5] it was 5.12 µM. Further, the Emax in assay [1] was 55%. Also, the inhibition at 10 µM in assay [3] turned out to be 51%.
As to `c1cc2[nH]c(-c3n[nH]c4ccc(-c5cncc(OCCN6CCCC6)c5)cc34)cc2cn1` [Compound 658, 5-(5-(2-(Pyrrolidin-1-yl)ethoxy)pyridin-3-yl)-3-(1H-pyrrolo[3,2-c]pyridin-2-yl)-1H-indazole], the EC50 in assay [1] is 30 nM; in assay [2] it was 1.16 µM; in assay [3], 1.85 µM; in assay [4], 0.552 µM; in assay [5] it was 0.338 µM. Moreover, the Emax in assay [1] was found to be 198%.
As to `CS(=O)(=O)NCc1cc(F)cc(-c2nccc3[nH]c(-c4n[nH]c5ccc(-c6ccncc6)cc45)cc23)c1` [Compound 494, N-(3-Fluoro-5-(2-(5-(pyridin-4-yl)-1H-indazol-3-yl)-1H-pyrrolo[3,2-c]pyridin-4-yl)benzyl)methanesulfonamide], the EC50 was 900 nM in assay [1]; over 10 µM in assay [2]; over 10 µM in assay [3]; over 10 µM in assay [4]; over 10 µM in assay [5]. Moreover, the Emax in assay [1] is 66%. Further, the inhibition at 10 µM was 44.6% in assay [2], 19% in assay [3], 9.5% in assay [4] and 0% in assay [5].
Turning to `c1cncc(-c2ccc3[nH]nc(-c4cc5c(N6CCCCC6)nccc5[nH]4)c3c2)c1` [Compound 172, 3-(4-(Piperidin-1-yl)-1H-pyrrolo[3,2-c]pyridin-2-yl)-5-(pyridin-3-yl)-1H-indazole], the EC50 in assay [1] came to 10 nM; in assay [2], 0.189 µM; in assay [3] it was 0.48 µM; in assay [4], 0.844 µM; in assay [5] it was 1.05 µM. The Emax in assay [1] is 172%.
As to `CC(C)(C)CC(=O)Nc1cncc(-c2ccc3[nH]nc(-c4cc5cnccc5[nH]4)c3c2)c1` [Compound 268, N-(5-(3-(1H-Pyrrolo[3,2-c]pyridin-2-yl)-1H-indazol-5-yl)pyridin-3-yl)-3,3-dimethylbutanamide], the EC50 worked out at 10 nM in assay [1]; 0.094 µM in assay [2]; 0.12 µM in assay [3]; 0.236 µM in assay [4]; 0.199 µM in assay [5]. Also, in assay [1], the Emax was 208%.
On to `COc1cncc(-c2ccc3[nH]nc(-c4cc5c(-c6ccsc6)nccc5[nH]4)c3c2)c1` [Compound 676, 5-(5-Methoxypyridin-3-yl)-3-(4-(thiophen-3-yl)-1H-pyrrolo[3,2-c]pyridin-2-yl)-1H-indazole], for which the Emax in assay [1] was 39%. Also, the EC50 in assay [2] is 9.12 µM; in assay [3], 0.808 µM; in assay [4], 0.5 µM; in assay [5], 2.1 µM.
For `CCC(=O)Nc1cncc(-c2ccc3[nH]nc(-c4cc5cnccc5[nH]4)c3c2)c1` [Compound 253, N-(5-(3-(1H-Pyrrolo[3,2-c]pyridin-2-yl)-1H-indazol-5-yl)pyridin-3-yl) propionamide], the EC50 in assay [1] was found to be 900 nM; in assay [2], 0.189 µM; in assay [3] it was 0.15 µM; in assay [4] it was 0.533 µM; in assay [5], 0.499 µM. Also, the Emax in assay [1] is 259%.
Take `Fc1ccccc1-c1nccc2[nH]c(-c3n[nH]c4ccc(-c5cncc(CN6CCCCC6)c5)cc34)cc12` [Compound 71, 3-(4-(2-Fluorophenyl)-1H-pyrrolo[3,2-c]pyridin-2-yl)-5-(5-(piperidin-1-ylmethyl)pyridin-3-yl)-1H-indazole]: the Emax in assay [1] is 16%. The EC50 turned out to be 1.09 µM in assay [2], 2.8 µM in assay [3], 1 µM in assay [4] and 1.94 µM in assay [5].
In the case of `CS(=O)(=O)NCc1cc(F)cc(-c2nccc3[nH]c(-c4n[nH]c5ccc(-c6cncnc6)cc45)cc23)c1` [Compound 503, N-(3-Fluoro-5-(2-(5-(pyrimidin-5-yl)-1H-indazol-3-yl)-1H-pyrrolo[3,2-c]pyridin-4-yl)benzyl)methanesulfonamide], in assay [1], the Emax stood at 40%. The EC50 in assay [2] was 0.035 µM; in assay [3], 3.08 µM; in assay [4], over 10 µM; in assay [5], over 10 µM. Further, the inhibition at 10 µM worked out at 32.7% in assay [4] and 15.5% in assay [5].
As for `CCCC(=O)Nc1cncc(-c2ccc3[nH]nc(-c4cc5c(-c6ccc(F)cc6)nccc5[nH]4)c3c2)c1` [Compound 45, N-(5-(3-(4-(4-Fluorophenyl)-1H-pyrrolo[3,2-c]pyridin-2-yl)-1H-indazol-5-yl)pyridin-3-yl)butyramide], the EC50 in assay [1] was 900 nM; in assay [2], 0.929 µM; in assay [3], 0.52 µM; in assay [4], 0.262 µM; in assay [5], 0.263 µM. Besides, in assay [1], the Emax came out at 142%.
